{
  "source": "patent US5952330A",
  "about": "“Use of NK-1 receptor antagonists for treating mania” (Merck Sharp & Dohme Ltd., priority 1997, dated 1999)",
  "tested_on": "cisplatin-induced emesis in ferrets",
  "experiment": "Ferret emesis, cisplatin-induced retches and vomits (Assay 3)",
  "format": "in vivo",
  "settings": "Mustela putorius; p.o., cisplatin 10 mg/kg i.v. 60 minutes after oral dosing; 4 h observation; read-out: ferret emesis: ID90",
  "method": "ASSAY 3: Ferret Emesis Individually housed male ferrets (1.0-2.5 kg) are dosed orally by gavage with test compound. Ten minutes later they are fed with approximately 10 g of tinned cat food. At 60 minutes following oral dosing, cisplatin (10 mg/kg) is given i.v. via a jugular vein catheter inserted under a brief period of halothane anaesthesia. The catheter is then removed, the jugular vein ligated and the skin incision closed. The ferrets recover rapidly from the anaesthetic and are mobile within 10-20 minutes. The animals are observed continuously during recovery from the anaesthetic and for 4 hours following the cisplatin injection. The numbers of retches and vomits occurring during the 4 hours after cisplatin administration are recorded by trained observers.",
  "data": [
    {"smiles": "C[C@@H](O[C@H]1OCCN(Cc2n[nH]c(=O)[nH]2)[C@H]1c1ccc(F)cc1)c1cc(C(F)(F)F)cc(C(F)(F)F)c1", "note": "[2-(R)-(1-(R)-(3,5-bis(trifluoromethyl)phenyl)ethoxy)-3-(S)-(4-fluorophenyl)-4-(3-(5-oxo-1H, 4H-1,2,4-triazolo)methyl)-morpholine]", "values": [
      {"measurement": "ED90", "result": "< 3", "unit": "mg/kg"}
    ]}
  ]
}
